Data set [1] has as its system Osteoclast. The data set can be described thus: Antiresorptive activity in 1,25-dihydroxyvitamin D3-stimulated Swiss Webster mouse osteoclast assessed as blockade of actin ring formation on bone slices at 1 uM after 3 days. The format is functional, cell-based.
Data set [2] is described as follows: Reduction in mouse MC3T3-E1 cell growth at 100 uM after 3 days. The format is cell-based. The settings on record: mc3t3-e1, 72 h.
The test system of data set [3] is Bone marrow cell. The data set can be described thus: Antiresorptive activity in 1,25-dihydroxyvitamin D3-stimulated Swiss Webster mouse bone marrow cells assessed as reduction in bone pit formation at 25 uM after 5 days. The data set is classed as functional, cell-based.
Data set [4] has as its system Bone marrow cell. The data set can be described thus: Antiresorptive activity in 1,25-dihydroxyvitamin D3-stimulated Swiss Webster mouse bone marrow cells assessed as reduction in resorptive area at 25 uM after 5 days. The format is functional, cell-based.
Data set [5] relates to Osteoclast. The data set can be described thus: Antiresorptive activity in 1,25-dihydroxyvitamin D3-stimulated Swiss Webster mouse osteoclast assessed as blockade of ruffled membrane formation on bone slices at 1 uM after 3 days. The format is functional, cell-based.
The nature of data set [6]: Cytotoxicity against mouse MC3T3-E1 cells assessed as change in morphology at 100 uM after 3 days. The settings on record: mc3t3-e1, 72 h. The format is cell-based.
The target in data set [7] is V-type proton ATPase subunit B (Saccharomyces cerevisiae S288c) (UniProt P16140). Kind of data set: Inhibition of Saccharomyces cerevisiae V-ATPase subunit B expressed in Escherichia coli binding to rabbit muscle actin filament at 100 uM by pelleting assay. The settings on record: Muscle tissue.
V-type proton ATPase subunit B (Saccharomyces cerevisiae S288c), sequence (P16140 whole entry): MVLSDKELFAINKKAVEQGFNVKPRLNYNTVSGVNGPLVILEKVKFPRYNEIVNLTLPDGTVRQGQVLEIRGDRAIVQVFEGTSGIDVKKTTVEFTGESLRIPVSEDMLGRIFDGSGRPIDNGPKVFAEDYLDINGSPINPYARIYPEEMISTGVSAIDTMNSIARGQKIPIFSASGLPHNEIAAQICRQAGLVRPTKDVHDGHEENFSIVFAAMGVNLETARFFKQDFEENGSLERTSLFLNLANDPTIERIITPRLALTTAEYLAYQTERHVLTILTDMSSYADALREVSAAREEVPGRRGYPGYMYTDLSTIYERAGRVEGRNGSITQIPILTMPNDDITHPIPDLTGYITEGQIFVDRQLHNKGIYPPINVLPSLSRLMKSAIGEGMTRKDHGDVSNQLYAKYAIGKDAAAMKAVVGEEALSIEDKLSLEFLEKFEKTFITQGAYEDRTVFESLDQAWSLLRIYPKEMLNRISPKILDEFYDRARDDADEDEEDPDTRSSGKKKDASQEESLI
Data set [8] concerns Bone marrow cell. Kind of data set: Antiresorptive activity in 1,25-dihydroxyvitamin D3-stimulated Swiss Webster mouse bone marrow cells at 100 uM after 5 days. The format is functional, cell-based.
A short description of data set [9]: Reduction in osteoblast formation from mouse MC3T3-E1 cells assessed as alkaline phosphatase activity at 100 uM after 3 days. The data set is classed as cell-based. The note with it: mc3t3-e1, 72 h.
Data set [10] relates to Osteoclast. The data set can be described thus: Antiresorptive activity in 1,25-dihydroxyvitamin D3-stimulated Swiss Webster mouse osteoclast assessed as blockade of ruffled membrane formation on bone slices at 100 uM after 3 days. The format is functional, cell-based.
For data set [11], the system named is Bone marrow cell. The data set can be described thus: (§1) Antiresorptive activity against 1,25-dihydroxyvitamin D3-stimulated osteoclast formation in Swiss Webster mouse bone marrow cells assessed as reduction of tartrate-resistant acid phosphatase activity after 7 days. The format is functional, cell-based.
For data set [12], the system named is Bone marrow cell. Kind of data set: Antiresorptive activity in 1,25-dihydroxyvitamin D3-stimulated Swiss Webster mouse bone marrow cells after 5 days. The format is functional, cell-based.
Data set [13] deals with V-type proton ATPase subunit B, brain isoform (Homo sapiens, UniProt P21281). The data set can be described thus: Inhibition of maltose binding protein-fused human V-ATPase subunit B2 binding to F-actin.
V-type proton ATPase subunit B, brain isoform, sequence (P21281 whole entry, the tested form may be a part, canonical isoform): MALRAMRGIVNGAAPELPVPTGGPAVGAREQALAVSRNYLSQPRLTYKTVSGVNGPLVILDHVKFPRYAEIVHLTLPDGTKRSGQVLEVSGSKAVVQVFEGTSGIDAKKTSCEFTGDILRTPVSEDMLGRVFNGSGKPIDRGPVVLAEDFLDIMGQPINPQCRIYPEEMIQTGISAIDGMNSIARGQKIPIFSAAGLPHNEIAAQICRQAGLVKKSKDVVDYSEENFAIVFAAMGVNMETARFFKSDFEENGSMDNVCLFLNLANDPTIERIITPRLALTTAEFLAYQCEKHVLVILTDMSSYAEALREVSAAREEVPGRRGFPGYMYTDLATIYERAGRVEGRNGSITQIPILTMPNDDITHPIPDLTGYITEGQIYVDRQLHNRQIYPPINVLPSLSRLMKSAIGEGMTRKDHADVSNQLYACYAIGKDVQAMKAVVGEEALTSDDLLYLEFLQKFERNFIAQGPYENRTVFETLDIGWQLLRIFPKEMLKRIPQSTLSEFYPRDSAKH
For data set [14], the system named is Osteoclast. The data set can be described thus: Antiresorptive activity in 1,25-dihydroxyvitamin D3-stimulated Swiss Webster mouse osteoclast assessed as blockade of ruffled membrane formation on bone slices at 10 uM after 3 days. The format is functional, cell-based.
Data set [15] relates to Osteoclast. The data set can be described thus: Antiresorptive activity in 1,25-dihydroxyvitamin D3-stimulated Swiss Webster mouse osteoclast assessed as blockade of actin ring formation on bone slices at 100 uM after 3 days. The data set is classed as functional, cell-based.
The test system of data set [16] is Bone marrow cell. The data set can be described thus: Antiresorptive activity in 1,25-dihydroxyvitamin D3-stimulated Swiss Webster mouse bone marrow cells assessed as reduction in bone pit formation at 10 uM after 5 days. The data set is classed as functional, cell-based.
In data set [17] the test system is Osteoclast. The data set can be described thus: Antiresorptive activity in 1,25-dihydroxyvitamin D3-stimulated Swiss Webster mouse osteoclast assessed as blockade of actin ring formation on bone slices at 10 uM after 3 days. The data set is classed as functional, cell-based.
A short description of data set [18]: as §1. The data set is classed as functional, cell-based. The settings on record: Bone marrow cell, 168 h.

The IC50 is the concentration that inhibits the measured activity by half.

Calls of active or inactive are those of the source. The rule behind the calls is not given here.

For `CCn1cc(C(=O)O)c(=O)c2cc(F)c(N3CCNCC3)nc21` [ENOXACIN], the outcome in the data set on Osteoclast [1] and in the data set with Osteoclast [5] was inactive. Also, the Activity entry is “Toxic” in data set [2]; “Toxic” in data set [6]; “Toxic” in data set [9]; “Dose-dependent effect” in the data set with Bone marrow cell [11]; “Dose-dependent effect” with Bone marrow cell [12]. Moreover, the result in the data set on Bone marrow cell [3], with Bone marrow cell [4], with Bone marrow cell [8], in the data set on Osteoclast [10], in the data set with Osteoclast [14] and with Osteoclast [15] was Active. In addition, the result in the data set with Bone marrow cell [16] and in the data set with Osteoclast [17] was Active. The inhibition result in data set [7] is “Active”. In [13], the IC50 is 10 µM.

Take `CCn1cc(C(=O)O)c(=O)c2cc(F)c(N3CCN(C)CC3)cc21` [PEFLOXACIN]: the IC50 in [18] is greater than 50 µM.
